Values joined by “and” are separate entries in the source; they are usually repeats but may differ in a detail not shown here. Equal entries are not always repeated.

A word on the EC50: it is the concentration needed to bring the measured effect to its halfway point. Lower therefore signals an effect from little substance.

In one experiment the test system is Plasmodium falciparum. Kind of experiment: Anti-malarial activity as growth inhibition of chloroquine-resistant Plasmodium falciparum. Format: functional, organism-based.
Experiment [1] relates to FM3A. Kind of experiment: Cytotoxicity against FM3A cells derived from a mammary tumor in mice was evaluated. Format: functional, cell-based. Particulars: Mus musculus.
In experiment [2] the test system is FM3A. Kind of experiment: Selective toxicity against Plasmodium falciparum compared to FM3A cytotoxicity. Format: functional.
Experiment [3] concerns FM3A. Kind of experiment: […] was evaluated by the percent viability of cells. Format: functional, Mus musculus.

`COC(=O)[C@@]12OC[C@]34[C@H]([C@@H](O)[C@@H]1O)[C@@]1(C)CC(=O)C(OC(=O)c5ccccc5)=C(C)[C@@H]1C[C@H]3OC(=O)[C@H](OC(=O)c1ccccc1)[C@@H]24`: the figures for the EC50 in the experiment with Plasmodium falciparum (Plasmodium falciparum) and in the experiment on FM3A [1] were more than 1000 nM and 400 nM, respectively.
For `COC(=O)[C@@]12OC[C@]34[C@H]([C@@H](O)[C@@H]1O)[C@@]1(C)CC(=O)C(OC(=O)C(N)Cc5ccccc5)=C(C)[C@@H]1C[C@H]3OC(=O)[C@H](OC(=O)C(N)Cc1ccccc1)[C@@H]24` (some centres undefined), the EC50 in the experiment on Plasmodium falciparum (Plasmodium falciparum) is 2800 nM; in the experiment on FM3A [1] it was more than 15000 nM. For the same molecule, the Ratio in the experiment on FM3A [2] was more than 5.4.
`CCCCCCCCCC(=O)OC1=C(C)[C@@H]2C[C@H]3OC(=O)[C@H](OC(=O)CCCCCCCCC)[C@H]4[C@]5(C(=O)OC)OC[C@]34[C@H]([C@@H](O)[C@@H]5O)[C@@]2(C)CC1=O`: the EC50 in the experiment with Plasmodium falciparum (Plasmodium falciparum) was 390 nM; in the experiment with FM3A [1] it was less than 160 nM.
`COC(=O)[C@@]12OC[C@]34[C@H]([C@@H](O)[C@@H]1O)[C@@]1(C)CC(=O)C(OC(C)=O)=C(C)[C@@H]1C[C@H]3OC(=O)[C@H](OC(C)=O)[C@@H]24`: the concentration for a half-maximal effect (EC50) in the experiment with Plasmodium falciparum (Plasmodium falciparum) worked out at 39 nM; in the experiment on FM3A [1], 16000 nM. Moreover, the Ratio in the experiment on FM3A [2] stood at 410.
For the molecule `CCCCCC(=O)OC1=C(C)[C@@H]2C[C@H]3OC(=O)[C@H](O)[C@H]4[C@]5(C(=O)OC)OC[C@]34[C@H]([C@@H](O)[C@@H]5O)[C@@]2(C)CC1=O`, the EC50 in the experiment with Plasmodium falciparum (Plasmodium falciparum) and in the experiment on FM3A [1] was 1000 nM throughout.
`C/C=C(\C)C(=O)OC1=C(C)[C@@H]2C[C@H]3OC(=O)[C@H](OC(=O)/C(C)=C/C)[C@H]4[C@]5(C(=O)OC)OC[C@]34[C@H]([C@@H](O)[C@@H]5O)[C@@]2(C)CC1=O` returned a Viability in the experiment with FM3A [3] of 100%. The EC50 with Plasmodium falciparum is > 1000 nM and 16000 nM; in the experiment with FM3A [1], more than 16000 nM.
`COC(=O)[C@@]12OC[C@]34[C@H]([C@@H](O)[C@@H]1O)[C@@]1(C)CC(=O)C(OC(=O)/C=C/c5ccccc5)=C(C)[C@@H]1C[C@H]3OC(=O)[C@H](OC(=O)/C=C/c1ccccc1)[C@@H]24`: the EC50 with Plasmodium falciparum (Plasmodium falciparum) was 82 nM; in the experiment on FM3A [1], less than 150 nM.
As to `C/C=C(/C)C(=O)OC1=C(C)[C@@H]2C[C@H]3OC(=O)[C@H](OC(=O)/C(C)=C\C)[C@H]4[C@]5(C(=O)OC)OC[C@]34[C@H]([C@@H](O)[C@@H]5O)[C@@]2(C)CC1=O`, the EC50 in the experiment with Plasmodium falciparum (Plasmodium falciparum) was 700 nM; with FM3A [1], 6000 nM. In the experiment with FM3A [2], the Ratio is reported as 9.
Turning to `CCC(=O)O[C@H]1C(=O)O[C@@H]2C[C@H]3C(C)=C(O)C(=O)C[C@]3(C)[C@H]3[C@@H](O)[C@H](O)[C@@]4(C(=O)OC)OC[C@]32[C@@H]14`, the EC50 was found to be 29 nM with Plasmodium falciparum (Plasmodium falciparum) and 7000 nM with FM3A [1]. In the experiment on FM3A [2], the Ratio is on record as 241.
On to `CCCCCC(=O)OC1=C(C)[C@@H]2C[C@H]3OC(=O)[C@H](OC(=O)CCCCC)[C@H]4[C@]5(C(=O)OC)OC[C@]34[C@H]([C@@H](O)[C@@H]5O)[C@@]2(C)CC1=O`, for which the EC50 in the experiment with Plasmodium falciparum (Plasmodium falciparum) was 98 nM; in the experiment with FM3A [1] it was less than 170 nM.
`CCCCCCCCCCCCCCCC(=O)OC1=C(C)[C@@H]2C[C@H]3OC(=O)[C@H](OC(=O)CCCCCCCCCCCCCCC)[C@H]4[C@]5(C(=O)OC)OC[C@]34[C@H]([C@@H](O)[C@@H]5O)[C@@]2(C)CC1=O` had a Viability in the experiment with FM3A [3] of 89.9%. Besides, the EC50 in the experiment on Plasmodium falciparum (Plasmodium falciparum) is 16000 nM.
With `COC(=O)[C@@]12OC[C@]34[C@H]([C@@H](O)[C@@H]1O)[C@@]1(C)CC(=O)C(OC(=O)C(N)C(C)C)=C(C)[C@@H]1C[C@H]3OC(=O)[C@H](OC(=O)C(N)C(C)C)[C@@H]24` (some centres undefined), the values for the EC50 with Plasmodium falciparum (Plasmodium falciparum) and in the experiment with FM3A [1] were 570 nM and more than 15000 nM, respectively. Moreover, the Ratio in the experiment with FM3A [2] is given as more than 26.
As to `CCCCCCCCCC(=O)OC1=C(C)[C@@H]2C[C@H]3OC(=O)[C@H](O)[C@H]4[C@]5(C(=O)OC)OC[C@]34[C@H]([C@@H](O)[C@@H]5O)[C@@]2(C)CC1=O`, the EC50 with Plasmodium falciparum (Plasmodium falciparum) is more than 1000 nM; in the experiment on FM3A [1], 400 nM.
Regarding `COC(=O)[C@@]12OC[C@]34[C@H]([C@@H](O)[C@@H]1O)[C@@]1(C)CC(=O)C(OC(=O)C(C)N)=C(C)[C@@H]1C[C@H]3OC(=O)[C@H](OC(=O)C(C)N)[C@@H]24` (some centres undefined), the EC50 was 1000 nM with Plasmodium falciparum (Plasmodium falciparum) and more than 16000 nM in the experiment with FM3A [1]. The Ratio with FM3A [2] is recorded as more than 16.
On to `CCC(=O)OC1=C(C)[C@@H]2C[C@H]3OC(=O)[C@H](OC(=O)CC)[C@H]4[C@]5(C(=O)OC)OC[C@]34[C@H]([C@@H](O)[C@@H]5O)[C@@]2(C)CC1=O`, for which the EC50 with Plasmodium falciparum (Plasmodium falciparum) was found to be 35 nM; with FM3A [1], 6100 nM. Further, the Ratio with FM3A [2] is on record as 174.
On to `COC(=O)[C@@]12OC[C@]34[C@H]([C@@H](O)[C@@H]1O)[C@@]1(C)CC(=O)C(O)=C(C)[C@@H]1C[C@H]3OC(=O)[C@H](OC(C)=O)[C@@H]24` [BRUCEINE B], for which the EC50 is 24 nM with Plasmodium falciparum (Plasmodium falciparum) and 8000 nM in the experiment with FM3A [1]. Moreover, the Ratio in the experiment on FM3A [2] is recorded as 333.
Turning to `COC(=O)[C@@]12OC[C@]34[C@H]([C@@H](O)[C@@H]1O)[C@@]1(C)CC(=O)C(O)=C(C)[C@@H]1C[C@H]3OC(=O)[C@H](O)[C@@H]24` [BRUCEOLIDE], the figures for the EC50 in the experiment on Plasmodium falciparum (Plasmodium falciparum) and with FM3A [1] were 1700 nM and more than 21000 nM, respectively. Besides, in the experiment with FM3A [2], the Ratio is given as more than 12.3.

Values taken from ChEMBL document CHEMBL1130760, “Anti-malarial activities of acylated bruceolide derivatives” (Bioorg Med Chem Lett, 1998).
